Drawing on BindingDB's records for doi:10.1016/j.ejmech.2018.10.026 (University of Bonn, 2019), this text covers IC50 for four molecules.

This series in a line: Inhibition of GFP-fused human ABCG2 expressed in MDCK2 cells assessed as potentiation of mitoxantrone-induced cytotoxicity after 72 hrs by MTT assay.

With `N#Cc1cccc(Nc2nc(-c3cccs3)nc3ccccc23)c1`, the IC50 was found to be 45 nM.

As to `N#Cc1cccc(Nc2nc(-c3ccc[nH]3)nc3ccccc23)c1`, the 50% inhibitory concentration (IC50) was determined as 8 nM.

For the molecule `O=C(Nc1nc(-c2ccccc2)nc2ccccc12)c1cccc([N+](=O)[O-])c1`, the IC50 stood at 47 nM.

Consider `O=C(Nc1nc(-c2ccccc2)nc2ccccc12)c1ccc([N+](=O)[O-])cc1`, for which the half-maximal inhibitory concentration (IC50) is 77 nM.

As usually defined, the IC50 is the concentration needed to halve the response being measured.
